Experimental data reported in PubChem BioAssay (NCI).
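1) Cells in 96-well plates. 2) Compound, 48 h, 5 concentrations. 3) Linear interpolation between surrounding doses. 4) Unreached endpoint = highest concentration. The concentration for full growth arrest is given as TGI.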

Assays:
Experiment in all cases: inhibition of tumour cell growth, NCI panel, 48 h
A549 NSCLC = tested on: A549 NSCLC
SF-295 CNS = tested on: SF-295 CNS
UO-31 renal = tested on: UO-31 renal
SW-620 colon = tested on: SW-620 colon
LOX IMVI melanoma = tested on: LOX IMVI melanoma
SN12C renal = tested on: SN12C renal
CAKI-1 renal = tested on: CAKI-1 renal
UACC-257 melanoma = tested on: UACC-257 melanoma
M14 melanoma = tested on: M14 melanoma
MCF7 breast = tested on: MCF7 breast
SNB-75 CNS = tested on: SNB-75 CNS
ACHN renal = tested on: ACHN renal
NCI-H23 lung = tested on: NCI-H23 lung
HCT-15 colon = tested on: HCT-15 colon
OVCAR-5 ovarian = tested on: OVCAR-5 ovarian
NCI/ADR-RES ovarian = tested on: NCI/ADR-RES ovarian
786-0 renal = tested on: 786-0 renal
HOP-92 NSCLC = tested on: HOP-92 NSCLC
SF-539 CNS = tested on: SF-539 CNS

Measured: TGI

Cc1c(C)c(S(=O)(=O)N(CCCN)OCCCN)c(C)c2c1OC(C)(C)C2
59.5 µM: SNB-75 CNS
61.6 µM: OVCAR-5 ovarian
34.9 µM: LOX IMVI melanoma
38.4 µM: MCF7 breast
34.1 µM: M14 melanoma
98.9 µM: SF-295 CNS
68 µM: 786-0 renal
89.3 µM: UACC-257 melanoma
59.8 µM: SW-620 colon
not listed: HOP-92 NSCLC | SF-539 CNS
> 100 µM: all other assays above

[N-]=[N+]=NC(CBr)c1cn([C@H]2C[C@H](O)[C@@H](CO)O2)c(=O)[nH]c1=O (some centres not stated)
not listed: UACC-257 melanoma | MCF7 breast | NCI/ADR-RES ovarian
> 100 µM: all other assays above

COCCOCC(=O)N(CCn1ccc(NC(c2ccccc2)(c2ccccc2)c2ccccc2)nc1=O)CCn1cnc2nc(N)[nH]c(=O)c21
not listed: MCF7 breast | NCI/ADR-RES ovarian
> 100 µM: all other assays above

Cc1cc(OCC(=O)N/N=C/C(Br)=C/c2ccccc2)nc(SCC(=O)N/N=C/C(Br)=C/c2ccccc2)n1
86.4 µM: HOP-92 NSCLC
not listed: A549 NSCLC | SNB-75 CNS | SF-539 CNS
> 100 µM: all other assays above

COC(=O)[C@@]12OC[C@]34C([C@@H](O)C1O)[C@@]1(C)CC(=O)C(OC(=O)/C=C(/c5ccccc5)C(F)(F)F)=C(C)C1C[C@H]3OC(=O)[C@H](O)[C@H]42 (some centres not stated)
28.1 µM: SF-295 CNS
36.9 µM: M14 melanoma
31.3 µM: SNB-75 CNS
43.7 µM: HOP-92 NSCLC
13 µM: SF-539 CNS
19.7 µM: NCI-H23 lung
not listed: SW-620 colon | LOX IMVI melanoma | MCF7 breast | NCI/ADR-RES ovarian
> 50 µM: all other assays above

COc1cc(O)c2c(=O)cc(C3(O)C=CC(=O)C=C3)oc2c1
1.05 µM: UACC-257 melanoma
1.11 µM: HCT-15 colon
0.493 µM: HOP-92 NSCLC
0.993 µM: UO-31 renal
2.37 µM: M14 melanoma
0.58 µM: MCF7 breast
0.876 µM: 786-0 renal
3.06 µM: SNB-75 CNS
0.464 µM: LOX IMVI melanoma
0.22 µM: ACHN renal
2.46 µM: NCI-H23 lung
18.9 µM: NCI/ADR-RES ovarian
0.0663 µM: SW-620 colon
2.09 µM: SF-295 CNS

O=c1[nH]n(Cc2ccccn2)c2ccc([N+](=O)[O-])cc12
not listed: SF-295 CNS | MCF7 breast
> 100 µM: all other assays above

CC(=O)Nc1ccc(C(=O)NN2C(=O)C(Cl)C2c2ccccc2O)cc1 (configuration not stated)
78.3 µM: NCI-H23 lung
48.9 µM: LOX IMVI melanoma
78.9 µM: SNB-75 CNS
not listed: MCF7 breast | NCI/ADR-RES ovarian
> 100 µM: all other assays above

CCCCCCCN1C(=O)C(O)(c2ccc(C3(O)C(=O)N(CCCCCCC)c4ccccc43)s2)c2ccccc21 (configuration not stated)
3.51 µM: LOX IMVI melanoma
4.92 µM: ACHN renal
3.34 µM: SF-539 CNS
3.69 µM: M14 melanoma
3.61 µM: 786-0 renal
4.55 µM: SW-620 colon
5.7 µM: MCF7 breast
3.14 µM: UO-31 renal
3.24 µM: OVCAR-5 ovarian
4.42 µM: UACC-257 melanoma | HCT-15 colon
3.42 µM: SF-295 CNS | SN12C renal
17.3 µM: SNB-75 CNS
3.55 µM: HOP-92 NSCLC

CN(C)c1ccc(/C=N\N2C(=O)c3ccccc3C2=O)cc1
not listed: MCF7 breast | NCI/ADR-RES ovarian
> 100 µM: all other assays above

Cn1ncnc1CCc1ccccc1
not listed: MCF7 breast | NCI/ADR-RES ovarian
> 100 µM: all other assays above

COc1ccc(CNc2nc3c(NC(C)=O)cc(C(F)(F)F)cc3nc2-c2ccccc2)cc1OC
4.48 µM: SNB-75 CNS
not listed: MCF7 breast | ACHN renal | NCI/ADR-RES ovarian | HOP-92 NSCLC
> 100 µM: all other assays above

Cc1nc(Nc2ccc([N+](=O)[O-])cc2)sc1C(/C=C/c1ccc(N(C)C)cc1)=N/NC(=O)c1ccccc1
52.7 µM: HOP-92 NSCLC
not listed: MCF7 breast | NCI/ADR-RES ovarian
> 100 µM: all other assays above

O=c1cc(-c2ccc(Cl)cc2)oc2cc(OCCCOc3ccc4c(=O)cc(-c5ccc(Cl)cc5)oc4c3)ccc12
not listed: UO-31 renal | MCF7 breast | NCI/ADR-RES ovarian
> 100 µM: all other assays above

C=CCN(C)CN(C)c1nc(N(C)C)nc(N(C)C)n1
not listed: MCF7 breast | NCI/ADR-RES ovarian
> 100 µM: all other assays above

Cc1ccc(S(=O)(=O)N2CCCC2C(=O)O[C@H]2CC[C@H]3CC=C[C@H]32)cc1 (some centres not stated)
77.2 µM: NCI/ADR-RES ovarian
67.4 µM: UACC-257 melanoma
> 31.6 µM: A549 NSCLC | ACHN renal | 786-0 renal
78.8 µM: MCF7 breast
not listed: HCT-15 colon | HOP-92 NSCLC | SF-539 CNS
> 100 µM: all other assays above

Cc1ccc(O)c(C(=O)CCCC(=O)c2cc(C)ccc2O)c1
not listed: A549 NSCLC | MCF7 breast | NCI/ADR-RES ovarian
> 100 µM: all other assays above

O=C(O)Cn1c(=O)[nH]c(=O)c2c1ncn2Cc1ccccc1
not listed: SF-295 CNS | LOX IMVI melanoma | UACC-257 melanoma | MCF7 breast | NCI/ADR-RES ovarian
> 100 µM: all other assays above

C=CC[C@@H]1C(=O)[C@@]2(O[Si](C(C)C)(C(C)C)C(C)C)CC[C@@H]1C[C@H]2NC(=O)OCC(Cl)(Cl)Cl
85.8 µM: SF-295 CNS
not listed: MCF7 breast | HOP-92 NSCLC | SF-539 CNS
> 100 µM: all other assays above

COc1cc2c(cc1OC)C(=O)C(C1=C(SC(=N)N)C(=O)c3cc(OC)c(OC)cc31)C2 (configuration not stated)
not listed: MCF7 breast | NCI/ADR-RES ovarian | HOP-92 NSCLC
> 100 µM: all other assays above

CC(C)C(/C=C/c1ccc(Br)cc1)=N\NC(N)=O
66.6 µM: UO-31 renal
not listed: MCF7 breast | NCI/ADR-RES ovarian
> 100 µM: all other assays above

COC(=O)C(Cc1nc2ccc(Cl)cc2[nH]c1=O)/C(=N/NC(N)=O)C(=O)Nc1ccc(Cl)cc1 (configuration not stated)
not listed: MCF7 breast | NCI/ADR-RES ovarian
> 100 µM: all other assays above

CCOC(=O)c1cnc(-n2[nH]c3c(c2=O)CCCC3)[nH]c1=O
57.6 µM: HOP-92 NSCLC
not listed: LOX IMVI melanoma | MCF7 breast | SNB-75 CNS
> 100 µM: all other assays above

O=C(NO)C(=O)Nc1ccc(Cl)cc1[N+](=O)[O-]
not listed: MCF7 breast | NCI/ADR-RES ovarian
> 100 µM: all other assays above

CCOC(=O)c1ccc(-n2c(SCC)nc3sc(C)c(C)c3c2=O)cc1
not listed: MCF7 breast | NCI/ADR-RES ovarian
> 100 µM: all other assays above

COc1ccc(/C(=N/NC(N)=O)C(c2ccc(OC)cc2)C2C(=O)Oc3ccccc32)cc1 (configuration not stated)
not listed: MCF7 breast | ACHN renal | NCI/ADR-RES ovarian
> 100 µM: all other assays above

CC(=O)NNc1nc(C)c(C(/C=C/c2ccc(Cl)cc2)=N/NC(=O)C[N+](C)(C)C)s1
not listed: SN12C renal | MCF7 breast | NCI/ADR-RES ovarian
> 100 µM: all other assays above
